Legend:
[1] = molecular target: T1, Recombinant STAT3 protein (STAT3(G127-I722)) (Homo sapiens, UniProt P40763); experiment: STAT3 Fluorescence Polarization (FP) Assay; assay type: binding; settings: STAT3(G127-I722) 25 nM, probe 5-FAM-GpYLPQTV-NH2 2 nM, 45-minute incubation
T1 construct: Recombinant STAT3 protein (STAT3(G127-I722))
Method in brief: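 STAT3(G127-I722), 25 nM, was mixed with 2 nM 5-FAM-GpYLPQTV-NH2 probe in HEPES pH 7.4 buffer with 1% DMSO and serially diluted compound. FP (mP) was read after 45 min at room temperature. IC50 came from nonlinear regression.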

[2] = molecular target: T2, Recombinant STAT6 protein (STAT6(W123-T658)) (Homo sapiens, UniProt P42226); experiment: STAT6 Fluorescence Polarization (FP) Assay; assay type: binding; settings: STAT6(W123-T658) 250 nM, probe 5-FAM-ApYKPFQDLI-NH2 2 nM, 45-minute incubation
T2 construct: Recombinant STAT6 protein (STAT6(W123-T658))
T2 sequence (P42226 123-658): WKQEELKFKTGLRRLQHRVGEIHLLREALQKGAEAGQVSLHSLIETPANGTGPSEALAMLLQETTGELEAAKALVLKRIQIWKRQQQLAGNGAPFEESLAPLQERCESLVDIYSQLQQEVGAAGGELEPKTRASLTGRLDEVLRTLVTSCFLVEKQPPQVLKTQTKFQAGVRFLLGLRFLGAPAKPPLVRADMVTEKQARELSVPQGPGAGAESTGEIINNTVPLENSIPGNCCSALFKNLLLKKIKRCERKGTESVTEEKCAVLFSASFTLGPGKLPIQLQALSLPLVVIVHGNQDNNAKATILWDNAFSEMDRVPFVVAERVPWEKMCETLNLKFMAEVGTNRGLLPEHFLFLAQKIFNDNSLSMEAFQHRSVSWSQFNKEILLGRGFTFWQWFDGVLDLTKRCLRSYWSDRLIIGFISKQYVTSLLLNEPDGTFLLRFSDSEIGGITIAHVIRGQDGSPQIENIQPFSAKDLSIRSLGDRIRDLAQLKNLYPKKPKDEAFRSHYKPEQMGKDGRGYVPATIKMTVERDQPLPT
Method in brief: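 Displacement of a fluorescent phosphotyrosine peptide (5-FAM-ApYKPFQDLI-NH2, 2 nM) from STAT6(W123-T658) (250 nM), 1% DMSO, pH 7.4 HEPES buffer. After 45 min at room temperature, polarization (mP) was plotted versus log compound concentration and fitted by nonlinear regression to give IC50.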

T1 sequence (P40763 127-722): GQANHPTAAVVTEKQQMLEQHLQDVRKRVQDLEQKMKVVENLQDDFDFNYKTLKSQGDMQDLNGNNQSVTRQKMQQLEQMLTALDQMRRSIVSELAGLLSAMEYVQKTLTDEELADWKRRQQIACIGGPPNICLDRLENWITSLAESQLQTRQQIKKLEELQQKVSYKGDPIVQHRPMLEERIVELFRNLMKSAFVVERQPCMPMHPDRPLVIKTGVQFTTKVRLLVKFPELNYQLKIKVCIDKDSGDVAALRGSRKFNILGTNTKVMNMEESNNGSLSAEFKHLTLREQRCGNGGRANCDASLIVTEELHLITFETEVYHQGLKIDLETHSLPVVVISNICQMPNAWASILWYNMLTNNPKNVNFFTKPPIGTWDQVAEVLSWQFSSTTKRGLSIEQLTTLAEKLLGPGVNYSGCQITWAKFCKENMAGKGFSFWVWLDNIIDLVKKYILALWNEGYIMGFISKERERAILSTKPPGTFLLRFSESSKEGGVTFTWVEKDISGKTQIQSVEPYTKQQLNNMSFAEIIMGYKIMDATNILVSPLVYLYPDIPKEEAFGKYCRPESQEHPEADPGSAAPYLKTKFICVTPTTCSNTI

| IC50 [1] | IC50 [2] | Structure (SMILES) |
| --- | --- | --- |
| 1 to 10 µM | 0.3 to 3 µM | CC(=O)N1CC[C@H]2CC[C@@H](C(=O)N3C[C@@H](C#N)C[C@H](c4ccccc4)C3)N2C(=O)[C@@H](NC(=O)c2cc3cc(C(F)(F)P(=O)(O)O)ccc3s2)C1 (relative stereo) [Compound 153, ((2-(((5S,8S,10aR)-3-acetyl-8-((rel-trans)-3-cyano-5-phenylpiperidine-1-carbonyl)-6-oxodecahydropyrrolo[1,2-a][1,5]diazocin-5-yl)carbamoyl)benzo[b]thiophen-5-yl)difluoromethyl)phosphonic acid] |
| > 10 µM | 3 to 30 µM | CC(=O)N1CC[C@H]2CC[C@@H](C(=O)N(C)c3ccccc3)N2C(=O)[C@@H](NC(=O)c2ccc3ccc(CP(=O)(O)O)cc3c2)C1 [Compound 15, ((7-(((5S,8S,10aR)-3-acetyl-8-(methyl(phenyl)carbamoyl)-6-oxodecahydropyrrolo[1,2-a][1,5]diazocin-5-yl)carbamoyl)naphthalen-2-yl)methyl)phosphonic acid] |
| 1 to 10 µM | ≤ 0.3 µM | Cc1ccc2[nH]nc(C(=O)N3CC[C@H](NC(=O)c4ccc5ccc(C(F)(F)P(=O)(O)O)cc5c4)C(=O)N4[C@H](CC[C@H]4C(=O)N4C[C@H](c5ccccc5)[C@@H](C#N)C4)C3)c2c1 (relative stereo) [Compound 233, ((7-(((5S,8S,10aR)-8-(rel-tran)-3-cyano-4-phenylpyrrolidine-1-carbonyl)-2-(5-methyl-1H-indazole-3-carbonyl)-6-oxodecahydropyrrolo[1,2-a][1,4]diazocin-5-yl)carbamoyl)naphthalen-2-yl)difluoromethyl)phosphonic acid] |
| 1 to 10 µM | 0.3 to 3 µM | CC(=O)N1CC[C@H]2CC[C@@H](C(=O)N3C[C@H](C#N)C[C@H]3c3ccccc3)N2C(=O)[C@@H](NC(=O)c2cc3cc(C(F)(F)P(=O)(O)O)ccc3s2)C1 (relative stereo) [Compound 206, ((2-(((5S,8S,10aR)-3-acetyl-8-((rel-trans)-4-cyano-2-phenylpyrrolidine-1-carbonyl)-6-oxodecahydropyrrolo[1,2-a][1,5]diazocin-5-yl)carbamoyl)benzo[b]thiophen-5-yl)difluoromethyl)phosphonic acid] |
| > 10 µM | > 30 µM | CC(=O)N1CC[C@H]2CC[C@@H](C(=O)N(C)c3ccccc3)N2C(=O)[C@@H](NC(=O)c2ccc3cc(C(F)(F)P(=O)(O)O)ccc3c2)C1 [Compound 112, ((6-(((5S,8S,10aR)-3-acetyl-8-(methyl(phenyl)carbamoyl)-6-oxodecahydropyrrolo[1,2-a][1,5]diazocin-5-yl)carbamoyl)naphthalen-2-yl)difluoromethyl)phosphonic acid] |
| 1 to 10 µM | 0.3 to 3 µM | N#C[C@H]1CN(C(=O)[C@@H]2CC[C@@H]3CCN(CC(F)F)C[C@H](NC(=O)c4ccc5ccc(C(F)(F)P(=O)(O)O)cc5c4)C(=O)N32)CC[C@@H]1c1ccccc1 (relative stereo) [Compound 241, ((7-(((5S,8S,10aR)-8-((rel-trans)-3-cyano-4-phenylpiperidine-1-carbonyl)-3-(2,2-difluoroethyl)-6-oxodecahydropyrrolo[1,2-a][1,5]diazocin-5-yl)carbamoyl)naphthalen-2-yl)difluoromethyl)phosphonic acid] |
| 1 to 10 µM | 0.3 to 3 µM | CC(=O)N1CC[C@H]2CC[C@@H](C(=O)Nc3ccc4ncncc4c3)N2C(=O)[C@@H](NC(=O)c2cc3cc(C(F)(F)P(=O)(O)O)ccc3s2)C1 [Compound 172, ((2-(((5S,8S,10aR)-3-acetyl-6-oxo-8-(quinazolin-6-ylcarbamoyl)decahydropyrrolo[1,2-a][1,5]diazocin-5-yl)carbamoyl)benzo[b]thiophen-5-yl)difluoromethyl)phosphonic acid] |
| 1 to 10 µM | ≤ 0.3 µM | CC(=O)N1CC[C@H]2CC[C@@H](C(=O)N3C[C@H](c4ccccc4)[C@@H](O)C3)N2C(=O)[C@@H](NC(=O)c2cc3cc(C(F)(F)P(=O)(O)O)ccc3s2)C1 (relative stereo) [Compound 60, ((2-(((5S,8S,10aR)-3-acetyl-8-((rel-trans)-3-hydroxy-4-phenylpyrrolidine-1-carbonyl)-6-oxodecahydropyrrolo[1,2-a][1,5]diazocin-5-yl)carbamoyl)benzo[b]thiophen-5-yl)difluoromethyl)phosphonic acid] |
| ≤ 0.1 µM | 3 to 30 µM | N#Cc1cccc(C2CN(C(=O)[C@@H]3CC[C@@H]4CCN(Cc5ncccn5)C[C@H](NC(=O)c5cc6cc(C(F)P(=O)(O)O)ccc6s5)C(=O)N43)C2)n1 (stereo partly drawn) [Compound 398, ((2-(((5S,8S,10aR)-8-(3-(6-cyanopyridin-2-yl)azetidine-1-carbonyl)-6-oxo-3-(pyrimidin-2-ylmethyl)decahydropyrrolo[1,2-a][1,5]diazocin-5-yl)carbamoyl)benzo[b]thiophen-5-yl)fluoromethyl)phosphonic acid] |
| 1 to 10 µM | 0.3 to 3 µM | CC(=O)N1CC[C@H]2CC[C@@H](C(=O)N(C)Cc3ccccc3)N2C(=O)[C@@H](NC(=O)c2cc3cc(C(F)(F)P(=O)(O)O)ccc3[nH]2)C1 [Compound 54, ((2-(((5S,8S,10aR)-3-acetyl-8-(benzyl(methyl)carbamoyl)-6-oxodecahydropyrrolo[1,2-a][1,5]diazocin-5-yl)carbamoyl)-1H-indol-5-yl)difluoromethyl)phosphonic acid] |
| 1 to 10 µM | 0.3 to 3 µM | CC(=O)N1CC[C@H]2CC[C@@H](C(=O)N(C)c3ccc(C(C)(C)C)c(Cl)c3)N2C(=O)[C@@H](NC(=O)c2cc3cc(C(F)(F)P(=O)(O)O)ccc3s2)C1 [Compound 160, ((2-(((5S,8S,10aR)-3-acetyl-8-((4-(tert-butyl)-3-chlorophenyl)(methyl)carbamoyl)-6-oxodecahydropyrrolo[1,2-a][1,5]diazocin-5-yl)carbamoyl)benzo[b]thiophen-5-yl)difluoromethyl)phosphonic acid] |
| 1 to 10 µM | 0.3 to 3 µM | N#C[C@H]1CN(C(=O)[C@@H]2CC[C@@H]3CCN(CC(F)F)C[C@H](NC(=O)c4ccc5ccc(C(F)(F)P(=O)(O)O)cc5c4)C(=O)N32)C[C@@H]1c1cc(F)cc(F)c1 (relative stereo) [Compound 246, ((7-(((5S,8S,10aR)-8-((rel-trans)-3-cyano-4-(3,5-difluorophenyl)pyrrolidine-1-carbonyl)-3-(2,2-difluoroethyl)-6-oxodecahydropyrrolo[1,2-a][1,5]diazocin-5-yl)carbamoyl)naphthalen-2-yl)difluoromethyl)phosphonic acid] |
| 1 to 10 µM | 0.3 to 3 µM | CC(=O)N1CC[C@H]2CC[C@@H](C(=O)N(C)CCC#N)N2C(=O)[C@@H](NC(=O)c2cc3cc(C(F)(F)P(=O)(O)O)ccc3s2)C1 [Compound 90, ((2-(((5S,8S,10aR)-3-acetyl-8-((2-cyanoethyl)(methyl)carbamoyl)-6-oxodecahydropyrrolo[1,2-a][1,5]diazocin-5-yl)carbamoyl)benzo[b]thiophen-5-yl)difluoromethyl)phosphonic acid] |
| 1 to 10 µM | 0.3 to 3 µM | CC(=O)N1CC[C@H]2CC[C@@H](C(=O)Nc3ccc4c(cnn4C)c3)N2C(=O)[C@@H](NC(=O)c2cc3cc(C(F)(F)P(=O)(O)O)ccc3s2)C1 [Compound 161, ((2-(((5S,8S,10aR)-3-acetyl-8-((1-methyl-1H-indazol-5-yl)carbamoyl)-6-oxodecahydropyrrolo[1,2-a][1,5]diazocin-5-yl)carbamoyl)benzo[b]thiophen-5-yl)difluoromethyl)phosphonic acid] |
| > 10 µM | 0.3 to 3 µM | O=C(N[C@H]1CN(C(=O)c2noc3c2CCCC3)CC[C@H]2CC[C@@H](C(=O)N3CCOCC3)N2C1=O)c1ccc2ccc(C(F)P(=O)(O)O)cc2c1 (stereo partly drawn) [Compound 358, (fluoro(7-(((5S,8S,10aR)-8-(morpholine-4-carbonyl)-6-oxo-3-(4,5,6,7-tetra-hydrobenzo[d]isoxazole-3-carbonyl)decahydropyrrolo [1,2-a][1,5]diazocin-5-yl)carbamoyl)naphthalen-2-yl)methyl)phosphonic acid] |
| 1 to 10 µM | 0.3 to 3 µM | CC(=O)N1CC[C@H]2CC[C@@H](C(=O)Nc3ccc(=O)n(C)c3)N2C(=O)[C@@H](NC(=O)c2cc3cc(C(F)(F)P(=O)(O)O)ccc3s2)C1 [Compound 71, ((2-(((5S,8S,10aR)-3-acetyl-8-((1-methyl-6-oxo-1,6-dihydropyridin-3-yl)carbamoyl)-6-oxodecahydropyrrolo[1,2-a][1,5]diazocin-5-yl)carbamoyl)benzo[b]thiophen-5-yl)difluoromethyl)phosphonic acid] |

From patent US20250179103A1, “6-OXODECAHYDROPYRROLO[1,2-A][1,5]DIAZOCINE AND 6-OXODECAHYDRO-4H-PYRROLO[2,1-D][1,5]THIAZOCINE DERIVATIVES AS STAT3 AND STAT6 MODULATORS FOR THE TREATMENT OF CANCER AND INFLAMMATORY CONDITIONS” (Recludix Pharma, Inc., priority 2022, published 2025)
